Experimental data taken from ChEMBL document CHEMBL5543081, “Design, synthesis and evaluation of antioxidant and anti-inflammatory activities of novel resveratrol derivatives as potential multifunctional drugs” (Eur J Med Chem, 2024).
The source made the active and inactive calls. The calls are words filed in the database; no cut-off is given here.

test system: not listed separately; assay: Antioxidant activity assessed as FRAP radical scavenging activity by measuring reduction of Fe3+ complex to Fe2+ analogue incubated for 30 mins by FRAP assay; format: functional; conditions: not given

Compound	Activity [µM]
N#Cc1ccc(C(=O)N/N=C\c2c(O)cc(O)cc2/C=C/c2ccc(O)cc2)cc1	0.6
O=C(N/N=C\c1c(O)cc(O)cc1/C=C/c1ccc(O)cc1)c1ccc(Br)cc1	0.5
Nc1ccccc1C(=O)N/N=C\c1c(O)cc(O)cc1/C=C/c1ccc(O)cc1	1.5
O=C(N/N=C\c1c(O)cc(O)cc1/C=C/c1ccc(O)cc1)c1cccc(Cl)c1	0.9
O=C(N/N=C\c1c(O)cc(O)cc1/C=C/c1ccc(O)cc1)c1cccc([N+](=O)[O-])c1	0.4
O=C(N/N=C\c1c(O)cc(O)cc1/C=C/c1ccc(O)cc1)c1cccc(F)c1	0.8
Nc1ccc(C(=O)N/N=C\c2c(O)cc(O)cc2/C=C/c2ccc(O)cc2)cc1	2.2
Cc1cccc(C(=O)N/N=C\c2c(O)cc(O)cc2/C=C/c2ccc(O)cc2)c1	0.9
O=C(N/N=C\c1c(O)cc(O)cc1/C=C/c1ccc(O)cc1)c1ccccc1	0.7
O=C(N/N=C\c1c(O)cc(O)cc1/C=C/c1ccc(O)cc1)c1ccccc1F	1
Oc1ccc(/C=C/c2cc(O)cc(O)c2)cc1 [RESVERATROL]	0.9

test system: RAW264.7; assay: Protection against H2O2 induced apoptosis in mouse RAW264.7 cells assessed as decrease in cleaved caspase-3 expression at 10 uM by Western blot analysis; format: functional, cell-based; conditions: not given

Compound	Activity
Oc1ccc(/C=C/c2cc(O)cc(O)c2)cc1 [RESVERATROL]	inactive

test system: RAW264.7; assay: Cytotoxicity against mouse RAW264.7 cells at 10 uM measured after 24 hrs by MTT assay relative to control; format: functional; conditions: not given

Compound	Activity [%]
Nc1ccc(C(=O)N/N=C\c2c(O)cc(O)cc2/C=C/c2ccc(O)cc2)cc1	>80

test system: RAW264.7; assay: Antiinflammatory activity in LPS-stimulated mouse RAW264.7 cells assessed as effect on ERK phosphorylation level preincubated for 4 hrs followed by LPS stimulation for 12 hrs by Western blot analysis; format: functional, cell-based; conditions: time 16.0 hrs

Compound	Activity
Oc1ccc(/C=C/c2cc(O)cc(O)c2)cc1 [RESVERATROL]	inactive

test system: not listed separately; assay: Antioxidant activity assessed as ABTS radical scavenging activity after 20 mins; format: functional; conditions: not given

IC50 [µM]	Compound
18.2	N#Cc1ccc(C(=O)N/N=C\c2c(O)cc(O)cc2/C=C/c2ccc(O)cc2)cc1
13	O=C(N/N=C\c1c(O)cc(O)cc1/C=C/c1ccc(O)cc1)c1ccc(Br)cc1
8.5	Nc1ccccc1C(=O)N/N=C\c1c(O)cc(O)cc1/C=C/c1ccc(O)cc1
15.2	O=C(N/N=C\c1c(O)cc(O)cc1/C=C/c1ccc(O)cc1)c1cccc(Cl)c1
11.6	O=C(N/N=C\c1c(O)cc(O)cc1/C=C/c1ccc(O)cc1)c1cccc([N+](=O)[O-])c1
12.5	O=C(N/N=C\c1c(O)cc(O)cc1/C=C/c1ccc(O)cc1)c1cccc(F)c1
9.7	Nc1ccc(C(=O)N/N=C\c2c(O)cc(O)cc2/C=C/c2ccc(O)cc2)cc1
18	Cc1cccc(C(=O)N/N=C\c2c(O)cc(O)cc2/C=C/c2ccc(O)cc2)c1
13.4	O=C(N/N=C\c1c(O)cc(O)cc1/C=C/c1ccc(O)cc1)c1ccccc1
17.3	O=C(N/N=C\c1c(O)cc(O)cc1/C=C/c1ccc(O)cc1)c1ccccc1F
18.4	Oc1ccc(/C=C/c2cc(O)cc(O)c2)cc1 [RESVERATROL]

test system: RAW264.7; assay: Upregulation of Nrf2 expression in H2O2 induced mouse RAW264.7 cells at 10 uM by Western blot analysis; format: functional, cell-based; conditions: not given

Compound	Activity
Oc1ccc(/C=C/c2cc(O)cc(O)c2)cc1 [RESVERATROL]	inactive

test system: RAW264.7; assay: Protection against H2O2 induced apoptosis in mouse RAW264.7 cells assessed as cell apoptosis rate at 10 uM preincubated for 3 hrs with compound followed by H2O2 stimulation and measured after 3 hrs by annexin V-FITC and PI staining based flow cytometry analysis; format: functional; conditions: time 6.0 hrs

Compound	Activity
Oc1ccc(/C=C/c2cc(O)cc(O)c2)cc1 [RESVERATROL]	inactive

test system: RAW264.7; assay: Effect on KEAP1 level in H2O2 induced mouse RAW264.7 cells at 2.5 to 10 uM by Western blot analysis; format: functional, cell-based; conditions: dose 2.5-10 µM

Compound	Activity
Oc1ccc(/C=C/c2cc(O)cc(O)c2)cc1 [RESVERATROL]	inactive

test system: not listed separately; assay: Antioxidant activity assessed as DPPH radical scavenging activity measured for 30 mins by spectrophotometric analysis; format: functional; conditions: not given

IC50 [µM]	Compound
84	N#Cc1ccc(C(=O)N/N=C\c2c(O)cc(O)cc2/C=C/c2ccc(O)cc2)cc1
84	O=C(N/N=C\c1c(O)cc(O)cc1/C=C/c1ccc(O)cc1)c1ccc(Br)cc1
39.8	Nc1ccccc1C(=O)N/N=C\c1c(O)cc(O)cc1/C=C/c1ccc(O)cc1
81.9	O=C(N/N=C\c1c(O)cc(O)cc1/C=C/c1ccc(O)cc1)c1cccc(Cl)c1
79.9	O=C(N/N=C\c1c(O)cc(O)cc1/C=C/c1ccc(O)cc1)c1cccc([N+](=O)[O-])c1
82.6	O=C(N/N=C\c1c(O)cc(O)cc1/C=C/c1ccc(O)cc1)c1cccc(F)c1
46.2	Nc1ccc(C(=O)N/N=C\c2c(O)cc(O)cc2/C=C/c2ccc(O)cc2)cc1
80.8	Cc1cccc(C(=O)N/N=C\c2c(O)cc(O)cc2/C=C/c2ccc(O)cc2)c1
84.4	O=C(N/N=C\c1c(O)cc(O)cc1/C=C/c1ccc(O)cc1)c1ccccc1
97.8	O=C(N/N=C\c1c(O)cc(O)cc1/C=C/c1ccc(O)cc1)c1ccccc1F
86.6	Oc1ccc(/C=C/c2cc(O)cc(O)c2)cc1 [RESVERATROL]

test system: RAW264.7; assay: Protection against H2O2 induced apoptosis in mouse RAW264.7 cells assessed as decrease in cleaved PARP expression at 10 uM by Western blot analysis; format: functional, cell-based; conditions: not given

Compound	Activity
Oc1ccc(/C=C/c2cc(O)cc(O)c2)cc1 [RESVERATROL]	inactive
